# Measurements from US20250367170A1, “TOPICAL ANGIOTENSIN II RECEPTOR BLOCKERS (ARBS) FOR TREATING EYE CONDITIONS” (The Cleveland Clinic Foundation, priority 2022, published 2025).
# Legend:
# [1] = tested on: α-SMA-positive myofibroblasts; experiment: IHC for α-SMA-positive myofibroblasts, area and intensity (ImageJ) after alkali burn; format: in vivo, New Zealand White rabbits; conditions: one month
# Method: One month after exposure and topical treatment, rabbits were euthanized after ketamine-xylazine general anesthesia with 100 mg/kg Beuthanasia (Shering-Plough, Kenilworth, NJ) by intravenous injection and bilateral pneumothorax. The corneo-scleral rims of eyes were removed with sharp Westcott scissors (Fairfield, CT, USA) and 0.12 forceps (Storz, St. Louis, MO). The cornea was centered in a 24×24×5 mm mold (Fisher Scientific, Pittsburgh, PA, USA) that was filled with OCT compound (Sakura Finetek, Torrance, CA, USA) and quick frozen on dry ice. Blocks were stored at −80° C. until sectioning. […]
# The area of the α-SMA-positive stroma in mm^2 and the total α-SMA opacity in pixels were quantitated using standardized images obtained with a 10× objective on a Leica DM6B upright microscope equipped with an automated stage and Leica 7000 T camera using the LAS X software (Leica Microsystems, GmbH, Wetzlar, Germany). The means of three central corneal sections were analyzed from each cornea to provide the area of α-SMA-positive stroma and the total α-SMA opacity. […] In these same sections for each cornea, the total α-SMA-positive intensity in pixels was also determined with ImageJ, similarly by using the summation if separate α-SMA-positive areas were present.
# [2] = tested on: α-smooth muscle actin (SMA) marker for myofibroblasts; experiment: IHC for SMA, area of SMA-positive posterior fibrotic stroma (QuPath) after Descemetorhexis; format: in vivo, New Zealand White rabbits
# Method: At one month after surgery and treatment, an intravenous injection of 100 mg/kg Beuthanasia (Shering-Plough, Kenilworth, NJ) was given for euthanasia with the animals under general anaesthesia. Sharp Westcott scissors (Fairfield, CT, USA) and 0.12 forceps (Storz, St. Louis, MO) were used to remove the comeo-scleral rims of the sham unwounded and DMR eyes without touching the cornea. Each cornea was set in the center of a 24×24×5 mm mold (Fisher Scientific, Pittsburgh, PA, USA) and the mold was filled in liquid OCT compound (Sakura Finetek, Torrance, CA, USA). The molds and cornea-scleral rims were quick frozen on dry ice and stored at −80° C. until sections were cut.
# Each OCT block was bisected in the exact center of the cornea, and 8 μm thick transverse sections were cut from the central cornea within the previous DMR injury or unwounded sham surgery corneas with a cryostat (HM 505M; Micron GmbH, Walldorf, Germany) and three sections per slide were placed on 25 mm×75 mm×1 mm Superfrost Plus microscope slides (Fisher Scientific, Pittsburgh, PA, USA). Slides were maintained at −20° C. until immunohistochemistry.
# Duplex immunohistochemistry (IHC) was performed after masking of slides by a researcher not involved in the analysis using previously described methods (de Oliveira et al., 2021) using primary antibodies (Table 2) confirmed by western blotting and IHC to recognize rabbit antigens or isotypic control antibodies (ThermoFisher Scientific, Waltham, MA), and secondary fluorescent tagged antibodies (Table 3).
# The area of the SMA-positive posterior fibrotic stroma was quantitated with the original groups masked to the analyzer by standardized photography with a lOx objective on a Leica DM6B upright microscope equipped with an automated stage and Leica 7000 T camera using the LAS X software (Leica Microsystems, GmbH, Wetzlar, Germany). The area of the SMA-positive posterior stromal fibrosis was measured by manually outlining the area on the cornea sections with calibrated QuPath v0.2.3 software using previously described methods (Bankhead et al., 2017). Statistical analysis for the area of SMA-positive fibrosis was performed using the Kruskal-Wallis test followed by post-hoc Dunn's-Bonferroni test and p<0.05 was considered statistically significant.
smiles,measurement,setting,value
CCCCc1nc(Cl)c(CO)n1Cc1ccc(-c2ccccc2-c2nn[nH]n2)cc1 [losartan],total α-SMA area vs vehicle control group,[1],trend towards the losartan group being significantly different
same,posterior fibrosis compared with topical and oral vehicle,"[2]; Descemetorhexis, oral 5 mg/kg three times per day, one month",similar
same,mean SMA-positive posterior fibrotic area vs vehicles or topical and oral losartan,"[2]; Descemetorhexis, oral losartan alone, one month",not statistically significantly different
same,mean SMA-positive posterior fibrotic area compared to the other Descemetorhexis groups,"[2]; Descemetorhexis, topical 0.1 mg/ml six times a day, one month",significantly lower
same,SMA-positive fibrotic zone in the posterior cornea,"[2]; Descemetorhexis, topical 0.1 mg/ml six times per day, one month",marked decrease
same,SMA-positive fibrosis in the posterior cornea,"[2]; Descemetorhexis, topical six times per day and oral three times per day, one month",decrease
same,SMA-positive posterior corneal fibrosis in uninjured corneas,[2]; oral three times a day,did not develop
same,SMA-positive posterior corneal fibrosis in uninjured corneas,[2]; topical six times a day,did not develop
